Results on seven compounds are retold here after EP0623672A1, “New alkaline serine protease of Paecilomyces lilacinus” (RESEARCH INSTITUTE FOR PLANT PROTECTION, priority 1993, dated 1994).

Like-named read-outs stand apart in the source and are kept apart here.

The target of assay [1] is serine protease of Paecilomyces lilacinus (Purpureocillium lilacinum, UniProt Q01471). It is filed as biochemical. The protocol:
(§1) Protease activity was determined by a modified procedure of Rinderknecht et al. (1968). Ten mg of Hide Powder Azure (Sigma) was incubated in 50 mM Sodium acetate buffer pH 6.0 with the sample in a final volume of 3 ml in small glass containers. Incubation was at 37 °C in a shaking waterbath (110 strokes(min) till the solution turned blue (between 5 and 30 minutes). Following incubation the samples were put on ice and centrifuged in 1.5 ml Eppendorf cups for 5 minutes at 14.000 g. The absorbance of the supernatant was measured at 595 nm on a Uvikon 940 spectrophotometer. Protease activity of the sample was measured in duplo, averaged and expressed as A₅₉₅ ml⁻¹hr⁻¹ after correction for the blank (Milli Q water).
Several protease inhibitors, SH reducing agents and metal ions were tested on the proteolytic activity of the protease: PMSF, E64, 1.10-phenantroline, pepstatine (Sigma); EDTA, cystein MgCl₂ and CaCl₂ (Merck); DTT (BioRad). The purified enzyme was incubated for 40 minutes at 4 °C with inhibitor. After incubation the protease-activity was determined as previously described. Final inhibitor concentration was 1 mM. Protease activity in the absence of inhibitor was expressed as 100 %.

The test system of assay [2] is proteolytic activity in the culture filtrate. Put plainly: Inhibition of proteolytic activity in the culture filtrate by protease inhibitors. It counts as biochemical, Paecilomyces lilacinus. Here is the method: as §1
To identify the nature of the protease the proteolytic activity in the culture filtrate was inhibited with several protease inhibitors. […] Purification of the serine protease(s) was first performed with Benzamidine-Sepharose, an affinity resin for serine proteases of class I (Pharmacia).

In assay [3] the test system is Paecilomyces lilacinus. Briefly: Catabolite repression of protease induction in liquid culture. It counts as cell-based. Conditions: glucose 0.3 % added each day to MNNC (chitin as substrate); mycelium as inoculum; Figure 2. Here is the method:
In one experiment mycelium of Paecilomyces lilacinus was used as inoculum. Mycelium was obtained by centrifuging a 6 day old culture of conidia of P. lilacinus in MMNG for 45 minutes at 9000 g. Cultures were grown in a shaking waterbath for several days at 30 °C and 125 strokes per minute. Culture filtrates were obtained by centrifuging cultures for 45 min at 9000 g. Supernatants were concentrated using an Amicon (YM-10 filter) and clarified through a 0.22 µm-filter (Schleicher & Schuell). Pellets were freeze dried and the weigth of the mycelium was measured.
Protease activity was determined by a modified procedure of Rinderknecht et al. (1968). […] Incubation was at 37 °C in a shaking waterbath (110 strokes(min) till the solution turned blue (between 5 and 30 minutes). Following incubation the samples were put on ice and centrifuged in 1.5 ml Eppendorf cups for 5 minutes at 14.000 g. The absorbance of the supernatant was measured at 595 nm on a Uvikon 940 spectrophotometer. Protease activity of the sample was measured in duplo, averaged and expressed as A₅₉₅ ml⁻¹hr⁻¹ after correction for the blank (Milli Q water).
To see whether the fungus used glucose as carbon sourece, glucose concentrations were determined in the culture filtrate, of the fungus in MNNG (Figure 1). […]

Setting [4] is: 1 mM final, 40 minutes at 4 °C, Figure 7.

Sequence of serine protease of Paecilomyces lilacinus (Q01471 entry or part of it): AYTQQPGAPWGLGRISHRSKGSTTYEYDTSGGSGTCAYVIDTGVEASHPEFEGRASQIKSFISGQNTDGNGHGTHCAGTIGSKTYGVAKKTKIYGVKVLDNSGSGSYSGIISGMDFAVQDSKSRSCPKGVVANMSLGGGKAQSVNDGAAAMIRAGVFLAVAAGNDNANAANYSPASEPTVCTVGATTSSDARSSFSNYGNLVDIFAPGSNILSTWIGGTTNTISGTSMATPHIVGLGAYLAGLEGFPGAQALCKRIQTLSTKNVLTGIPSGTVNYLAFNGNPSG

For the compound `OC(CS)C(O)CS` (centres unmarked) [DTT], in assay [1] (setting [4]), the “effect on the proteolytic activity of the purified protease” value (shortened to “effect on the proteolytic activity”) was “did not influence its activity”. As to `O=C(O)CN(CCN(CC(=O)O)CC(=O)O)CC(=O)O` [EDTA], the “effect on the proteolytic activity” value in assay [1] is listed as “enhanced its activity”.

Regarding `O=S(=O)(F)Cc1ccccc1` [PMSF], in assay [1] (inhibitor 1 mM final, 40 minutes at 4 °C, activity without inhibitor = 100 %, Figure 7), the “inhibition of the activity of the purified protease” value was determined as 100%. The “inhibition of the proteolytic activity in the culture filtrate” value in assay [2] is given as “most of the protease activity present in the medium was inhibited”. On to `N[C@@H](CS)C(=O)O` [cystein], for which the “effect on the proteolytic activity” value in assay [1] (setting [4]) is listed as “did not influence its activity”. For `OC[C@H]1OC(O)[C@H](O)[C@@H](O)[C@@H]1O` (some centres unmarked) [glucose], the “induction of protease activity” value in assay [3] was “repressed”. On to CaCl₂ [Ca⁺⁺], for which the “effect on the proteolytic activity” value in assay [1] (setting [4]) is reported as “lowered the protease activity slightly”. With MgCl₂ [Mg⁺⁺], the “effect on the proteolytic activity” value in assay [1] (setting [4]) is “lowered the protease activity slightly”.
